Measurements from patent publication US12668599B2, “Heterobifunctional compounds and methods of treating disease” (Halda Therapeutics OpCo, Inc., priority 2023, dated 2026).

Experiments:
[1] = molecular target: T1, androgen receptor and BRD4 protein (Homo sapiens, UniProt O60885+P10275); test: Tumor TR-FRET trimer assay on tumors of the PK/PD Castrate VCaP model; format: in vivo, CB17.SCID mice; details: PK/PD Castrate VCaP Tumor Xenograft Model; Compound II-5 and Compound B at the same dose and dosing frequency, FIG. 20
T1 construct: Tumors obtained from the Castrate VCaP Model were lysed; from tissue; host or cells: VCaP tumour xenografts grown in castrated CB17.SCID mice
Experimental: 5M VCaP cells were subcutaneously implanted into CB17.SCID mice in 50% Matrigel (Corning). Mice were castrated under anesthesia once tumor volumes reached 100 mm^3. Tumors were then allowed to reach an average of approximately 150 mm^3 before randomization into efficacy arms. Tumors were measured twice weekly for Tumor Growth Inhibition (TGI) calculation. For PK/PD analysis, tumors were allowed to reach an average of 400 mm^3, before dosing the mice with test compound by oral gavage (n=5) for seven days. Mice were sacrificed 24 hours following the final dose, and tumors were harvested for downstream analysis. Plasma samples were collected from all dosed mice 2 hours following the final dose to determine test compound exposure by LC-MS/MS. […] the United States Food and Drug Administration for treatment of prostate cancer ([…]).
Tumors obtained from the Castrate VCaP Model were lysed in Cell Signaling Technology lysis buffer supplemented with protease/phosphatase inhibitors and nuclease. Each tumor was lysed in 10 μL of lysis buffer per mg of tumor and placed in a TissueLyser for 4 minutes at 20 Hz. Each sample was spun down at 16000×g for 10 minutes, the supernatant was removed, and a BCA assay was run to quantify the total protein concentration in each sample. In a white opaque 384 well plate each sample was diluted in supplemented CST lysis buffer to 48 and 24 μg of protein in a total volume of 16 μL. 4 μL of a 1:1 mixture of anti-androgen receptor and anti-BRD4 antibodies with donor and acceptor fluorophores were mixed into each well containing tumor samples. The plate was spun down at 300×g for one minute, placed on a plate shaker at 400 RPM for 10 minutes, spun down at 300×g for one minute, then sealed with a plate seal and stored overnight. Approximately 16 hours after adding antibodies, the plate was read on an Envision plate reader. The ratiometric value of each well was calculated by dividing the acceptor signal by the donor signal and multiplying by 10,000.

VCaP cells = test: Cellular growth inhibition assay for VCaP cells (CellTiter-Glo 2.0, 72 hours); format: cell-based, human; details: GI50 of the top compound in the pair divided by GI50 of the lower compound
[2] = test system: T-Rex 293 cell line SC3 cells having increased expression of androgen receptor protein due to exposure to doxycycline; test: Cellular growth inhibition, T-Rex 293 SC3 cells with doxycycline-induced androgen receptor (CellTiter-Glo 2.0, 72 hours); format: cell-based; details: GI50 of the top compound in the pair divided by GI50 of the lower compound; T-Rex 293 SC3 cells with doxycycline-induced androgen receptor
[3] = Stability to storage of crystal form under relative humidity; format: physicochemical; details: 23-25° C., 23% RH to 53% RH, one week
[4] = Stability analysis of Crystal Form A and Crystal Form B in solvent suspensions (XRPD); format: physicochemical; details: suspensions in EtOH, Acetone, Acetonitrile, THF/Heptane at 25° C. and 50° C. for 1 week
Experimental: The obtained suspensions were stirred at 25° C. and 50° C. for 1 week, respectively. Solid parts (wet cakes) were isolated by centrifugation filtration at […] temperature and investigated by XRPD.

T1 sequence (P10275 whole entry, other chains not shown): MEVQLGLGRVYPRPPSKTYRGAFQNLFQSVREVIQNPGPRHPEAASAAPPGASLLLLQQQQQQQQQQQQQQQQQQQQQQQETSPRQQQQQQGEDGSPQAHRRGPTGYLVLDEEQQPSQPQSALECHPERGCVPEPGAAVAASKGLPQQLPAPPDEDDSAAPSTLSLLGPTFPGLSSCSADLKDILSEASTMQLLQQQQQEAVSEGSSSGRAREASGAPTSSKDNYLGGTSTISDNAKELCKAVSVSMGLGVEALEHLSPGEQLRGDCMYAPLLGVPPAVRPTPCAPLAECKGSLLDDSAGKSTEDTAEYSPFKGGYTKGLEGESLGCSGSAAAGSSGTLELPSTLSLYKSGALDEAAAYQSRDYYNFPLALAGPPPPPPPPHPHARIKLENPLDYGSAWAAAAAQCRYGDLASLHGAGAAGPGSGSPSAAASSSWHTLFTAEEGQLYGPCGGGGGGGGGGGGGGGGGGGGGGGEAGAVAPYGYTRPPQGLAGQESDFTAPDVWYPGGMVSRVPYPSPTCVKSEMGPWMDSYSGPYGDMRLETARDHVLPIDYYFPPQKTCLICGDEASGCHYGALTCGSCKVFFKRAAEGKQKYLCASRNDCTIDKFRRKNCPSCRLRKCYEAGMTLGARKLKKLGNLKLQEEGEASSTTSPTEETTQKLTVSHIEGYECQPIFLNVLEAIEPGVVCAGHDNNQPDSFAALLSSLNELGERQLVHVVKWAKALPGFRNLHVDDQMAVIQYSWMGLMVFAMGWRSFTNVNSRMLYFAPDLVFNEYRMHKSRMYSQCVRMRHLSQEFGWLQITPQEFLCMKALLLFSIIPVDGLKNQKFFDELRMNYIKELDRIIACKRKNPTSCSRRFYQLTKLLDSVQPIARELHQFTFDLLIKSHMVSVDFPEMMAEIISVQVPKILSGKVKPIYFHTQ

Row | Structure (SMILES) | ternary complex formation between compound, androgen receptor, and BRD4 protein in tumors [1] | Ratio of GI50's (VCaP cells) | Ratio of GI50's [2] | physical stability of crystalline form on storage [3] | relative stability of crystal forms [4]
1 | Cc1sc2c(c1C)C(c1ccc(OC3CC4(CCN(c5ncc(C(=O)N[C@H]6C(C)(C)[C@H](Oc7ccc(C#N)c(Cl)c7)C6(C)C)cn5)CC4)C3)cc1)=N[C@@H](Cc1ncco1)c1nnc(C)n1-2 [B, reference compound] | observed | 1.3 | 5.3 | – | –
2 | COc1cc(O[C@H]2C(C)(C)[C@H](NC(=O)c3cnc(N4CCC5(CC4)CC(Oc4ccc(C6=N[C@@H](Cc7ncco7)c7nnc(C)n7-c7sc(C)c(C)c76)cc4)C5)nc3)C2(C)C)ccc1C#N [Compound II-5 in Crystal Form A, N-[(1r,3r)-3-(4-cyano-3-methoxy-phenoxy)-2,2,4,4-tetramethyl-cyclobutyl]-2-[2-[4-[(9S)-4,5,13-trimethyl-9-(oxazol-2-ylmethyl)-3-thia-1,8,11,12-tetrazatricyclo[8.3.0.0^2,6]trideca-2 (6),4,7,10,12-pentaen-7-yl]phenoxy]-7-azaspiro[3.5]nonan-7-yl]pyrimidine-5-carboxamide Crystal Form A] | – | – | – | no change in crystalline form was observed | superior stability
3 | COc1cc(O[C@H]2C(C)(C)[C@H](NC(=O)c3cnc(N4CCC5(CC4)CC(Oc4ccc(C6=N[C@@H](Cc7ncco7)c7nnc(C)n7-c7sc(C)c(C)c76)cc4)C5)nc3)C2(C)C)ccc1C#N [Compound II-5 in Crystal Form B, N-[(1r,3r)-3-(4-cyano-3-methoxy-phenoxy)-2,2,4,4-tetramethyl-cyclobutyl]-2-[2-[4-[(9S)-4,5,13-trimethyl-9-(oxazol-2-ylmethyl)-3-thia-1,8,11,12-tetrazatricyclo[8.3.0.0^2,6]trideca-2 (6),4,7,10,12-pentaen-7-yl]phenoxy]-7-azaspiro[3.5]nonan-7-yl]pyrimidine-5-carboxamide Crystal Form B] | – | – | – | – | converted to Compound II-5 in Crystal Form A
